ChEMBL document CHEMBL1131246, “Design, synthesis, and biological evaluation of a second generation of pyrazolo[4,3-e]-1,2,4-triazolo[1,5-c]pyrimidines as potent and selective A2A adenosine receptor antagonists” (J Med Chem, 1998)

Columns and labels:
Adenosine receptor A3 [1] = target: T1, Adenosine receptor A3 (Homo sapiens, UniProt P0DMS8); assay: biochemical
T1 sequence (P0DMS8 whole entry): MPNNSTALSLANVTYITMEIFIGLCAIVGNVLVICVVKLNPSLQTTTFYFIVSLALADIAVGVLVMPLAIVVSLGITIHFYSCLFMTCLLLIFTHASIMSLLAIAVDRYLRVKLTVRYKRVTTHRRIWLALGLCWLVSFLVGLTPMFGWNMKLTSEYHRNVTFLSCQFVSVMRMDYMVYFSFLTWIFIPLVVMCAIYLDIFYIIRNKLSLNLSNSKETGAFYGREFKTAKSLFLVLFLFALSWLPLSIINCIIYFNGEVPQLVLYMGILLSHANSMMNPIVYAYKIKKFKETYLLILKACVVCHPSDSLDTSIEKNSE
Description: (§1) Displacement of [125I]AB-MECA from human Adenosine A3 receptor expressed in HEK293 cells

Adenosine receptor A2a [2] = target: Adenosine receptor A2a (Rattus norvegicus, UniProt P30543)
Adenosine receptor A2a (Rattus norvegicus, UniProt P30543), sequence (P30543 whole entry): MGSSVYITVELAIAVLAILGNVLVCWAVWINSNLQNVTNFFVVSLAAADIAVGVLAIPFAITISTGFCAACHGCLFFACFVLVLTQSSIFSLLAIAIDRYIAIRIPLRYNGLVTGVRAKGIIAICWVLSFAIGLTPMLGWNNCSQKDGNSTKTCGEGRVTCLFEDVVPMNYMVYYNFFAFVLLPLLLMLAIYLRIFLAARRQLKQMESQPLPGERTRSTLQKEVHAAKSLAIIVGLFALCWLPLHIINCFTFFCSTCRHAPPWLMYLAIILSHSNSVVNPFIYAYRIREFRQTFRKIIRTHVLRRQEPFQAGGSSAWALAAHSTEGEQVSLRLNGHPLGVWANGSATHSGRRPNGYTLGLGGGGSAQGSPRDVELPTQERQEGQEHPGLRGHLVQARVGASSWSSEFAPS

Adenosine receptor A2a [3] = target: T2, Adenosine receptor A2a (Homo sapiens, UniProt P29274); assay: Inhibition of 1 uM NECA-stimulated cyclic AMP levels in human platelets; format: functional
T2 sequence (P29274 whole entry): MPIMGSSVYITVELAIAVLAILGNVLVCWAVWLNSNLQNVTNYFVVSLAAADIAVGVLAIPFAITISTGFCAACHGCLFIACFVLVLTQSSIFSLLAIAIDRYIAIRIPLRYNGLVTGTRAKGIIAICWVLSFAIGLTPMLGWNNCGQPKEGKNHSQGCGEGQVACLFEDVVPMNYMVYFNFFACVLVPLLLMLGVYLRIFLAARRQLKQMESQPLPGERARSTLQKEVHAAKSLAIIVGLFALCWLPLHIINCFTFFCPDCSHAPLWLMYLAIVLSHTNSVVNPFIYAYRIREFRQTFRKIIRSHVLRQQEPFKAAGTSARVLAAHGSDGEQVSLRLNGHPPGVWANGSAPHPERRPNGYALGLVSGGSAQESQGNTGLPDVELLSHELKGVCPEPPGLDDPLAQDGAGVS

Adenosine receptor A1 [4] = target: T3, Adenosine receptor A1 (Rattus norvegicus, UniProt P25099)
T3 sequence (P25099 whole entry): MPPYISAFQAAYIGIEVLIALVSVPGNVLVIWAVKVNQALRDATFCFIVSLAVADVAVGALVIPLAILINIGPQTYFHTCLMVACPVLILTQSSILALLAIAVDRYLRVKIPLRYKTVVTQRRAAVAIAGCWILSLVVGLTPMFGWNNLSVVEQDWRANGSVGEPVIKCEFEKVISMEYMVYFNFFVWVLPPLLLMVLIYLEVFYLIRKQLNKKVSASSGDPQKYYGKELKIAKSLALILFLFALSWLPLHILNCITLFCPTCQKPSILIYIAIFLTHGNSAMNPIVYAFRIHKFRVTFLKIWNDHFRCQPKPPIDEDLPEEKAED
Description: Displacement of [3H]CHA from rat cortical membrane Adenosine A1 receptor. Parenthesis indicate 95% confidence limit.

[5] = Selectivity for human A3 adenosine receptor and rat A2A adenosine receptor
Adenosine receptor A2a [6] = target: T2, Adenosine receptor A2a; assay: Displacement of [3H]-SCH- 58261 from human Adenosine A2A receptor expressed in CHO cells; format: cell-based
Adenosine receptor A1 [7] = target: T4, Adenosine receptor A1 (Homo sapiens, UniProt P30542); assay: Displacement of [3H]CHA from human Adenosine A1 receptor expressed in CHO cells; format: cell-based
T4 sequence (P30542 whole entry): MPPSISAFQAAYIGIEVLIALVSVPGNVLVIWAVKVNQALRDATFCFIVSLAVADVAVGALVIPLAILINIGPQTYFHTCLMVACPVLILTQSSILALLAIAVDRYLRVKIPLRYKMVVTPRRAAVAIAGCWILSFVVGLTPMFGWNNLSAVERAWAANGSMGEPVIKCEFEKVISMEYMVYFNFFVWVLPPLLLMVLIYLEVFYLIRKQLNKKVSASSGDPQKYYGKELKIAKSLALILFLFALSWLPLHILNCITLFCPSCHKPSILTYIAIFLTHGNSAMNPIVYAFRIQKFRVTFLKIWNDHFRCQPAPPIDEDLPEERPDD

Adenosine receptor A3 [8] = target: T1, Adenosine receptor A3; assay: biochemical; remark: listed apart in the source
Description: as §1

| Ki (Adenosine receptor A3 [1]) [nM] | Ki (Adenosine receptor A2a [2]) [nM] | IC50 (Adenosine receptor A2a [3]) [nM] | Ki (Adenosine receptor A1 [4]) [nM] | Selectivity [5] | Ki (Adenosine receptor A2a [6]) [nM] | Ki (Adenosine receptor A1 [7]) [nM] | Ki (Adenosine receptor A3 [8]) [nM] | Structure (SMILES) |
| --- | --- | --- | --- | --- | --- | --- | --- | --- |
| > 10000 | 59 | 90 | > 10000 | > 169 |  |  |  | Nc1nc2c(cnn2CCc2ccc(OCc3ccccc3)cc2)c2nc(-c3ccco3)nn12 |
| > 10000 |  |  |  |  |  |  |  | Nc1nc2c(cnn2CCCc2ccccc2)c2nc(-c3ccco3)nn12 [SCH-63390] |
| > 10000 | 0.94 | 10 | 741 | > 10600 | 1.5 | 253 | > 10000 | Nc1nc2c(cnn2CCCc2ccc(O)cc2)c2nc(-c3ccco3)nn12 |
| > 10000 | 49 | 60 | 2250 | > 204 |  |  |  | Nc1nc2c(cnn2CCCc2ccc(O)c(O)c2)c2nc(-c3ccco3)nn12 |
| > 10000 | 3.8 | 8 | 1840 | > 2630 | 3.3 | 2170 | > 10000 | Nc1nc2c(cnn2CCCc2ccc3c(c2)OCO3)c2nc(-c3ccco3)nn12 |
| > 10000 |  |  |  |  |  |  |  | Nc1nc2c(cnn2CCc2ccccc2)c2nc(-c3ccco3)nn12 [SCH-58261] |
| > 10000 | 1.7 | 14 | 444 | > 5880 |  |  |  | Nc1nc2c(cnn2CCc2ccc(O)cc2)c2nc(-c3ccco3)nn12 |
| > 10000 | 246 | 500 | 9450 | > 40 |  |  |  | Nc1nc2c(cnn2Cc2ccc(OCc3ccccc3)cc2)c2nc(-c3ccco3)nn12 |
| > 10000 | 45 | 300 | 1460 | > 222 |  |  |  | Nc1nc2c(cnn2CCCc2ccc(OCc3ccccc3)cc2)c2nc(-c3ccco3)nn12 |
| > 10000 | 5.3 | 20 | 2830 | > 1890 | 2.7 | 1650 | > 10000 | COc1ccc(CCCn2ncc3c2nc(N)n2nc(-c4ccco4)nc32)cc1OC |
| > 10000 | 53 | 149 | 13400 | > 188 |  |  |  | Nc1nc2c(cnn2Cc2ccc(O)cc2)c2nc(-c3ccco3)nn12 |

| Structure (SMILES) | Ki (Adenosine receptor A3 [1]) [nM] | Ki (Adenosine receptor A2a [2]) [nM] | IC50 (Adenosine receptor A2a [3]) [nM] | Ki (Adenosine receptor A1 [4]) [nM] | Selectivity [5] | Ki (Adenosine receptor A2a [6]) [nM] | Ki (Adenosine receptor A1 [7]) [nM] | Ki (Adenosine receptor A3 [8]) [nM] |
| --- | --- | --- | --- | --- | --- | --- | --- | --- |
| Nc1nc2ccc(Cl)cc2c2nc(-c3ccco3)nn12 [CGS-15943] | 14 | 0.95 |  |  |  |  |  |  |
